Columns and labels:
Format in all cases: ADME
Details in all cases: recombinant enzyme, 1 h
Cytochrome P450 2C19 [1] = target: T1, Cytochrome P450 2C19 (Homo sapiens, UniProt P33261, I19L); assay: Activity of human recombinant CYP2C19.15 mutant expressed in Saccharomyces cerevisiae BJ5457 assessed as omeprazole 5'-hydroxylation per pmol protein at 100 uM after 60 mins
Cytochrome P450 2C19 [2] = target: T2, Cytochrome P450 2C19 (Homo sapiens, UniProt P33261); assay: Activity of human recombinant CYP2C19.1B mutant expressed in Saccharomyces cerevisiae BJ5457 assessed asomeprazole 5'-hydroxylation after 60 mins
Cytochrome P450 2C19 [3] = target: T3, Cytochrome P450 2C19 (Homo sapiens, UniProt P33261, L17P); assay: Activity of human recombinant CYP2C19.14 mutant expressed in Saccharomyces cerevisiae BJ5457 assessed as omeprazole 5'-hydroxylation per pmol protein at 5 uM after 60 mins
Cytochrome P450 2C19 [4] = target: T3, Cytochrome P450 2C19; assay: Activity of human recombinant CYP2C19.14 mutant expressed in Saccharomyces cerevisiae BJ5457 assessed as intrinisic clearance foromeprazole 5'-hydroxylation per pmol protein after 60 mins
[5] = Activity of human recombinant CYP2C19.6 mutant expressed in Saccharomyces cerevisiae BJ5457 assessed as omeprazole 5'-hydroxylation per pmol protein at 5 uM after 60 mins
Cytochrome P450 2C19 [6] = target: T1, Cytochrome P450 2C19; assay: Activity of human recombinant CYP2C19.15 mutant expressed in Saccharomyces cerevisiae BJ5457 assessed asomeprazole 5'-hydroxylation after 60 mins
Cytochrome P450 2C19 [7] = target: T4, Cytochrome P450 2C19 (Homo sapiens, UniProt P33261, V331I/R442C); assay: Activity of human recombinant CYP2C19.16 mutant expressed in Saccharomyces cerevisiae BJ5457 assessed as intrinisic clearance foromeprazole 5'-hydroxylation per pmol protein after 60 mins
Cytochrome P450 2C19 [8] = target: T5, Cytochrome P450 2C19 (Homo sapiens, UniProt P33261, M74T); assay: Activity of human recombinant CYP2C19 M74T mutant expressed in Saccharomyces cerevisiae BJ5457 assessed asomeprazole 5'-hydroxylation per pmol protein after 60 mins
Cytochrome P450 2C19 [9] = target: T5, Cytochrome P450 2C19; assay: Activity of human recombinant CYP2C19 M74T mutant expressed in Saccharomyces cerevisiae BJ5457 assessed as omeprazole 5'-hydroxylation per pmol protein at 5 uM after 60 mins
Cytochrome P450 2C19 [10] = target: T2, Cytochrome P450 2C19; assay: Activity of human recombinant CYP2C19.1B mutant expressed in Saccharomyces cerevisiae BJ5457 assessed as omeprazole 5'-hydroxylation per pmol protein at 5 uM after 60 mins
Cytochrome P450 2C19 [11] = target: Cytochrome P450 2C19 (Homo sapiens, UniProt P33261, E92D); assay: Activity of human recombinant CYP2C19 E92D mutant expressed in Saccharomyces cerevisiae BJ5457 assessed as omeprazole 5'-hydroxylation per pmol protein at 100 uM after 60 mins
Cytochrome P450 2C19 [12] = target: Cytochrome P450 2C19 (Homo sapiens, UniProt P33261, A161P); assay: Activity of human recombinant CYP2C19 A161P mutant expressed in Saccharomyces cerevisiae BJ5457 assessed as omeprazole 5'-hydroxylation per pmol protein at 100 uM after 60 mins
Cytochrome P450 2C19 [13] = target: Cytochrome P450 2C19 (Homo sapiens, UniProt P33261, P227L); assay: Activity of human recombinant CYP2C19.10 mutant expressed in Saccharomyces cerevisiae BJ5457 assessed asomeprazole 5'-hydroxylation after 60 mins
Cytochrome P450 2C19 [14] = target: T4, Cytochrome P450 2C19; assay: Activity of human recombinant CYP2C19.16 mutant expressed in Saccharomyces cerevisiae BJ5457 assessed asomeprazole 5'-hydroxylation after 60 mins
Cytochrome P450 2C19 [15] = target: Cytochrome P450 2C19 (Homo sapiens, UniProt P33261, R329H); assay: Activity of human recombinant CYP2C19.18 mutant expressed in Saccharomyces cerevisiae BJ5457 assessed asomeprazole 5'-hydroxylation per pmol protein after 60 mins
Cytochrome P450 2C19 [16] = target: T6, Cytochrome P450 2C19 (Homo sapiens, UniProt P33261, F168L); assay: Activity of human recombinant CYP2C19 F168L mutant expressed in Saccharomyces cerevisiae BJ5457 assessed as intrinisic clearance foromeprazole 5'-hydroxylation per pmol protein after 60 mins
[17] = Activity of human recombinant CYP2C19.6 mutant expressed in Saccharomyces cerevisiae BJ5457 assessed as omeprazole 5'-hydroxylation per pmol protein at 100 uM after 60 mins
Cytochrome P450 2C19 [18] = target: T6, Cytochrome P450 2C19; assay: Activity of human recombinant CYP2C19 F168L mutant expressed in Saccharomyces cerevisiae BJ5457 assessed as omeprazole 5'-hydroxylation per pmol protein at 100 uM after 60 mins
Cytochrome P450 2C19 [19] = target: Cytochrome P450 2C19 (Homo sapiens, UniProt P33261, R433W); assay: Activity of human recombinant CYP2C19.5B mutant expressed in Saccharomyces cerevisiae BJ5457 assessed as omeprazole 5'-hydroxylation per pmol protein at 100 uM after 60 mins
Cytochrome P450 2C19 [20] = target: T7, Cytochrome P450 2C19 (Homo sapiens, UniProt P33261, D360N); assay: Activity of human recombinant CYP2C19 D360N mutant expressed in Saccharomyces cerevisiae BJ5457 assessed as intrinisic clearance foromeprazole 5'-hydroxylation per pmol protein after 60 mins
Cytochrome P450 2C19 [21] = target: T8, Cytochrome P450 2C19 (Homo sapiens, UniProt P33261, R150H); assay: Activity of human recombinant CYP2C19.11 mutant expressed in Saccharomyces cerevisiae BJ5457 assessed as intrinisic clearance foromeprazole 5'-hydroxylation per pmol protein after 60 mins
Cytochrome P450 2C19 [22] = target: T4, Cytochrome P450 2C19; assay: Activity of human recombinant CYP2C19.16 mutant expressed in Saccharomyces cerevisiae BJ5457 assessed asomeprazole 5'-hydroxylation per pmol protein after 60 mins
Cytochrome P450 2C19 [23] = target: T8, Cytochrome P450 2C19; assay: Activity of human recombinant CYP2C19.11 mutant expressed in Saccharomyces cerevisiae BJ5457 assessed as omeprazole 5'-hydroxylation per pmol protein at 5 uM after 60 mins
Cytochrome P450 2C19 [24] = target: T9, Cytochrome P450 2C19 (Homo sapiens, UniProt P33261, R410C); assay: Activity of human recombinant CYP2C19.13 mutant expressed in Saccharomyces cerevisiae BJ5457 assessed as omeprazole 5'-hydroxylation per pmol protein at 100 uM after 60 mins
Cytochrome P450 2C19 [25] = target: T2, Cytochrome P450 2C19; assay: Activity of human recombinant CYP2C19.1B mutant expressed in Saccharomyces cerevisiae BJ5457 assessed as intrinisic clearance foromeprazole 5'-hydroxylation per pmol protein after 60 mins
Cytochrome P450 2C19 [26] = target: T7, Cytochrome P450 2C19; assay: Activity of human recombinant CYP2C19 D360N mutant expressed in Saccharomyces cerevisiae BJ5457 assessed as omeprazole 5'-hydroxylation per pmol protein at 100 uM after 60 mins
Cytochrome P450 2C19 [27] = target: T10, Cytochrome P450 2C19 (Homo sapiens, UniProt P33261, R144H); assay: Activity of human recombinant CYP2C19.9 mutant expressed in Saccharomyces cerevisiae BJ5457 assessed asomeprazole 5'-hydroxylation after 60 mins
Cytochrome P450 2C19 [28] = target: T10, Cytochrome P450 2C19; assay: Activity of human recombinant CYP2C19.9 mutant expressed in Saccharomyces cerevisiae BJ5457 assessed as omeprazole 5'-hydroxylation per pmol protein at 5 uM after 60 mins
Cytochrome P450 2C19 [29] = target: T2, Cytochrome P450 2C19; assay: Activity of human recombinant CYP2C19.1A mutant expressed in Saccharomyces cerevisiae BJ5457 assessed asomeprazole 5'-hydroxylation after 60 mins
Cytochrome P450 2C19 [30] = target: T9, Cytochrome P450 2C19; assay: Activity of human recombinant CYP2C19.13 mutant expressed in Saccharomyces cerevisiae BJ5457 assessed as intrinisic clearance foromeprazole 5'-hydroxylation per pmol protein after 60 mins
Cytochrome P450 2C19 [31] = target: T2, Cytochrome P450 2C19; assay: Activity of human recombinant CYP2C19.1A mutant expressed in Saccharomyces cerevisiae BJ5457 assessed as omeprazole 5'-hydroxylation per pmol protein at 100 uM after 60 mins

COc1ccc2[nH]c([S+]([O-])Cc3ncc(C)c(OC)c3C)nc2c1 (stereo unspecified) [OMEPRAZOLE]
Drug metabolism (Cytochrome P450 2C19 [1]): 7.81 pmol/min | Km (Cytochrome P450 2C19 [2]): 4.16 µM | Drug metabolism (Cytochrome P450 2C19 [3]): 2.85 pmol/min | CL (Cytochrome P450 2C19 [4]): 1.91 µL/min | Drug metabolism [5]: metabolite_not_detected | Km (Cytochrome P450 2C19 [6]): 6.78 µM | CL (Cytochrome P450 2C19 [7]): 0.41 µL/min | Vmax (Cytochrome P450 2C19 [8]): 4.03 pmol/min | Drug metabolism (Cytochrome P450 2C19 [9]): 2.24 pmol/min | Drug metabolism (Cytochrome P450 2C19 [10]): 2.73 pmol/min | Drug metabolism (Cytochrome P450 2C19 [11]): 7.02 pmol/min | Drug metabolism (Cytochrome P450 2C19 [12]): 1.39 pmol/min | Km (Cytochrome P450 2C19 [13]): 10.6 µM | Km (Cytochrome P450 2C19 [14]): 4.17 µM | Vmax (Cytochrome P450 2C19 [15]): 7.77 pmol/min | CL (Cytochrome P450 2C19 [16]): 0.94 µL/min | Drug metabolism [17]: metabolite_not_detected | Drug metabolism (Cytochrome P450 2C19 [18]): 5.48 pmol/min | Drug metabolism (Cytochrome P450 2C19 [19]): metabolite_not_detected | CL (Cytochrome P450 2C19 [20]): 0.53 µL/min | CL (Cytochrome P450 2C19 [21]): 1.68 µL/min | Vmax (Cytochrome P450 2C19 [22]): 1.68 pmol/min | Drug metabolism (Cytochrome P450 2C19 [23]): 2.84 pmol/min | Drug metabolism (Cytochrome P450 2C19 [24]): 8.55 pmol/min | CL (Cytochrome P450 2C19 [25]): 1.24 µL/min | Drug metabolism (Cytochrome P450 2C19 [26]): 4.1 pmol/min | Km (Cytochrome P450 2C19 [27]): 10.1 µM | Drug metabolism (Cytochrome P450 2C19 [28]): 1.95 pmol/min | Km (Cytochrome P450 2C19 [29]): 5.42 µM | CL (Cytochrome P450 2C19 [30]): 1.54 µL/min | Drug metabolism (Cytochrome P450 2C19 [31]): 5.87 pmol/min
